Assay results reported in patent US9023789B2, “Amylin analogs and pharmaceutical compositions thereof” (Novo Nordisk A/S, priority 2012, dated 2015).
Values after ≈ are worked out from the molar mass of the structure shown. Read-outs that look alike come from different tables or passages of the source. Numbered stars: 1 amine (or outer) side, 2 acyl side, 3 side chain; on linkers, the order of the positions; unused ones are H or OH. Bridge positions count the residues as written; N and C are the ends. Side chains are listed from the residue outwards. Peptide text beside a SMILES is read from it. * marks the point of attachment. C20 diacid = O=C(O)CCCCCCCCCCCCCCCCCCC(=O)*; γGlu = O=C(O)[C@H](CCC(=O)[*:2])N[*:1]; AEEA = NCCOCCOCC(=O)O

Experiments:
[1] = ASSAY (IV) determination of solubility; type: physicochemical
Method in brief: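 Polypeptide in water at […] mixed 1:1 with 100 mM buffers of pH 3.0-8.0 (glycylglycine pH 3-5, bistrispropane pH 6-8). Held 18 h at room temperature, then centrifuged; concentration remaining in solution measured by UPLC.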

rat calcitonin receptor = target: T1, rat calcitonin receptor (Rattus norvegicus, UniProt P32214); assay: ASSAY (VIII) binding to the rat calcitonin receptor; details: Table 7, read-out: rCTR bind IC50
T1 construct: expressed in transfected cells; host or cells: BHK tk'ts 13 (transient, FuGENE 6), membranes
T1 sequence (P32214 25-479 isoform P32214-2 limits assumed): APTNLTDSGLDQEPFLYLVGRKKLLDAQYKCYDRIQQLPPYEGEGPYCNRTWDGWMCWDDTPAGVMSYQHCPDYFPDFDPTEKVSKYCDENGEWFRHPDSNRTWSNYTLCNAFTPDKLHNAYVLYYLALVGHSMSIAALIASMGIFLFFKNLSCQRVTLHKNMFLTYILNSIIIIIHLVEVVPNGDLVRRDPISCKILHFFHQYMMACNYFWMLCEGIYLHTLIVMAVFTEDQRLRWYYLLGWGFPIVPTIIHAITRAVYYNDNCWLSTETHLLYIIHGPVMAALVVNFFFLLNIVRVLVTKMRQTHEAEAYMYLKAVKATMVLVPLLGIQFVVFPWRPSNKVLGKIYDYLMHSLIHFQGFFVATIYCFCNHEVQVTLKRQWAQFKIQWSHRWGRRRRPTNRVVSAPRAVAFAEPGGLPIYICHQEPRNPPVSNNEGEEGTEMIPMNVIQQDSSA
Method in brief: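 Membranes were prepared from BHK tk′ts 13 cells transiently transfected with rat calcitonin receptor. Cells were grown in DMEM with 10% FBS and harvested approximately 48 hours after transfection.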

Sprague Dawley (SD) rats = assay: ASSAY (I) efficacy testing on appetite (food intake) using an ad libitum fed rat model; type: in vivo; details: rat, 30 nmol/kg
Method in brief: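 Ad libitum fed SD rats (200–250 g) were housed singly on a reversed light/dark cycle and given one 0.01–3 mg/kg dose ip, po or sc just before lights-off, with 5–8 per dose group plus vehicle controls. Food intake was recorded hourly for 7 h, then at 24 h and sometimes 48 h; Grubbs outliers were excluded.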

[2] = bistrispropane buffer, pH 6.5, read-out: Solubility pH 6.5 Concentration
[3] = bistrispropane buffer, pH 7.5, read-out: Solubility pH 7.5 Concentration
[4] = bistrispropane buffer, pH 6.0, read-out: Solubility pH 6.0 Concentration
[5] = bistrispropane buffer, pH 7.0, read-out: Solubility pH 7.0 Concentration
[6] = bistrispropane buffer, pH 8.0, read-out: Solubility pH 8.0 Concentration
[7] = glycylglycine buffer, pH 3.0, read-out: Solubility pH 3.0 Concentration
[8] = glycylglycine buffer, pH 4.0, read-out: Solubility pH 4.0 Concentration
[9] = glycylglycine buffer, pH 5.0, read-out: Solubility pH 5.0 Concentration

| SMILES | solubility at 18 h [1, 2] [µM] | solubility at 18 h [1, 3] [µM] | solubility at 18 h [1, 4] [µM] | solubility at 18 h [1, 5] [µM] | solubility at 18 h [1, 6] [µM] | solubility at 18 h [1, 7] [µM] | solubility at 18 h [1, 8] [µM] | solubility at 18 h [1, 9] [µM] | IC50 (rat calcitonin receptor) [nM] | Food intake reduction 0-24 h 30 nmol/kg (%) (Sprague Dawley (SD) rats) | Food intake reduction 24-48 h 30 nmol/kg (%) (Sprague Dawley (SD) rats) |
| --- | --- | --- | --- | --- | --- | --- | --- | --- | --- | --- | --- |
| CC[C@H](C)[C@H](NC(=O)[C@H](C)NC(=O)CNC(=O)[C@H](Cc1ccccc1)NC(=O)[C@H](CC(N)=O)NC(=O)[C@@H]1CCCN1C(=O)[C@H](CO)NC(=O)[C@H](CO)NC(=O)[C@H](Cc1c[nH]cn1)NC(=O)[C@H](CCCNC(=N)N)NC(=O)[C@H](CC(C)C)NC(=O)[C@H](Cc1ccccc1)NC(=O)[C@H](CC(N)=O)NC(=O)[C@H](C)NC(=O)[C@H](CC(C)C)NC(=O)[C@H](CCCNC(=N)N)NC(=O)[C@H](CCC(N)=O)NC(=O)[C@@H](NC(=O)[C@H](C)NC(=O)[C@@H]1CSSC[C@H](NC(=O)[C@H](CCCCN)NC(=O)CC[C@H](NC(=O)CCCCCCCCCCCCCCCCCCC(=O)O)C(=O)O)C(=O)N[C@@H](CC(N)=O)C(=O)N[C@@H]([C@@H](C)O)C(=O)N[C@@H](C)C(=O)N[C@@H]([C@@H](C)O)C(=O)N1)[C@@H](C)O)C(=O)N1CCC[C@H]1C(=O)N[C@@H](CO)C(=O)N[C@@H](CO)C(=O)N[C@H](C(=O)N[C@@H](CC(N)=O)C(=O)N[C@H](C(=O)NCC(=O)N[C@@H](CCCNC(=N)N)C(=O)N[C@@H](CC(N)=O)C(=O)N[C@H](C(=O)N[C@@H](Cc1ccc(O)cc1)C(N)=O)[C@@H](C)O)C(C)C)[C@@H](C)O [Example 39] ({C20 diacid-γGlu}-KCNTATCATQRLANFLRHSSPNFGAIPSSTNVGRNTY-NH2; disulfide 2-7) | ≥ 200 | ≥ 200 | ≥ 200 | ≥ 200 | ≥ 200 | ≥ 200 | ≥ 200 | ≥ 200 | 96.4 | 36 | 8 |
| CC[C@H](C)[C@H](NC(=O)[C@H](C)NC(=O)CNC(=O)[C@H](Cc1ccccc1)NC(=O)[C@H](CC(N)=O)NC(=O)[C@@H]1CCCN1C(=O)[C@H](CO)NC(=O)[C@H](CO)NC(=O)[C@H](Cc1c[nH]cn1)NC(=O)[C@H](CCCNC(=N)N)NC(=O)[C@H](CC(C)C)NC(=O)[C@H](Cc1ccccc1)NC(=O)[C@H](CC(N)=O)NC(=O)[C@H](C)NC(=O)[C@H](CC(C)C)NC(=O)[C@H](CCCNC(=N)N)NC(=O)[C@H](CCC(N)=O)NC(=O)[C@@H](NC(=O)[C@H](C)NC(=O)[C@@H]1CSSC[C@H](NC(=O)[C@H](CCCCN)NC(=O)CC[C@H](NC(=O)CCCCCCCCCCCCCCCCCCC(=O)O)C(=O)O)C(=O)N[C@@H](CC(N)=O)C(=O)N[C@@H]([C@@H](C)O)C(=O)N[C@@H](C)C(=O)N[C@@H]([C@@H](C)O)C(=O)N1)[C@@H](C)O)C(=O)N1CCC[C@H]1C(=O)N[C@@H](CO)C(=O)N[C@@H](CO)C(=O)N[C@H](C(=O)N[C@@H](CC(N)=O)C(=O)N[C@H](C(=O)NCC(=O)N[C@@H](Cc1c[nH]cn1)C(=O)N[C@@H](CC(N)=O)C(=O)N[C@H](C(=O)N[C@@H](Cc1ccc(O)cc1)C(N)=O)[C@@H](C)O)C(C)C)[C@@H](C)O [Example 40] | ≥ 200 | ≥ 200 | ≥ 200 | ≥ 200 | ≥ 200 | ≥ 200 | ≥ 200 | ≥ 200 | 69.2 | 51 | 26 |
| CC[C@H](C)[C@H](NC(=O)[C@H](C)NC(=O)CNC(=O)[C@H](Cc1ccccc1)NC(=O)[C@H](CC(N)=O)NC(=O)[C@@H]1CCCN1C(=O)[C@H](CO)NC(=O)[C@H](CO)NC(=O)[C@H](Cc1c[nH]cn1)NC(=O)[C@H](CCCNC(=N)N)NC(=O)[C@H](CC(C)C)NC(=O)[C@H](Cc1ccccc1)NC(=O)[C@H](CC(N)=O)NC(=O)[C@H](C)NC(=O)[C@H](CC(C)C)NC(=O)[C@H](CCCNC(=N)N)NC(=O)[C@H](CCC(N)=O)NC(=O)[C@@H](NC(=O)[C@H](C)NC(=O)[C@@H]1CSSC[C@H](NC(=O)[C@H](CCCNC(=N)N)NC(=O)[C@@H](N)CCCCNC(=O)COCCOCCNC(=O)CC[C@H](NC(=O)CCCCCCCCCCCCCCCCCCC(=O)O)C(=O)O)C(=O)N[C@@H](CC(N)=O)C(=O)N[C@@H]([C@@H](C)O)C(=O)N[C@@H](C)C(=O)N[C@@H]([C@@H](C)O)C(=O)N1)[C@@H](C)O)C(=O)N1CCC[C@H]1C(=O)N[C@@H](CO)C(=O)N[C@@H](CO)C(=O)N[C@H](C(=O)N[C@@H](CC(N)=O)C(=O)N[C@H](C(=O)NCC(=O)N[C@@H](CO)C(=O)N[C@@H](Cc1c[nH]cn1)C(=O)N[C@H](C(=O)N[C@@H](Cc1ccc(O)cc1)C(N)=O)[C@@H](C)O)C(C)C)[C@@H](C)O [Example 45] (H-K([AEEA-γGlu-C20 diacid])RCNTATCATQRLANFLRHSSPNFGAIPSSTNVGSHTY-NH2; disulfide 3-8 (inferred)) | ≥ 200 | ≥ 200 | ≥ 200 | ≥ 200 | 110 (≈ 518 µg/mL) | ≥ 200 | ≥ 200 | ≥ 200 | 41.8 | 27 | 3 |
| CC[C@H](C)[C@H](NC(=O)[C@H](C)NC(=O)CNC(=O)[C@H](Cc1ccccc1)NC(=O)[C@H](CC(N)=O)NC(=O)[C@@H]1CCCN1C(=O)[C@H](CO)NC(=O)[C@H](CO)NC(=O)[C@H](Cc1c[nH]cn1)NC(=O)[C@H](CCCNC(=N)N)NC(=O)[C@H](CC(C)C)NC(=O)[C@H](Cc1ccccc1)NC(=O)[C@H](CC(N)=O)NC(=O)[C@H](C)NC(=O)[C@H](CC(C)C)NC(=O)[C@H](CCCNC(=N)N)NC(=O)[C@H](CCC(N)=O)NC(=O)[C@@H](NC(=O)[C@H](C)NC(=O)[C@@H]1CSSC[C@H](NC(=O)[C@H](CCCNC(=N)N)NC(=O)CNC(=O)CC[C@H](NC(=O)CCCCCCCCCCCCCCCCCCC(=O)O)C(=O)O)C(=O)N[C@@H](CC(N)=O)C(=O)N[C@@H]([C@@H](C)O)C(=O)N[C@@H](C)C(=O)N[C@@H]([C@@H](C)O)C(=O)N1)[C@@H](C)O)C(=O)N1CCC[C@H]1C(=O)N[C@@H](CO)C(=O)N[C@@H](CO)C(=O)N[C@H](C(=O)N[C@@H](CC(N)=O)C(=O)N[C@H](C(=O)NCC(=O)N[C@@H](CO)C(=O)N[C@@H](Cc1c[nH]cn1)C(=O)N[C@H](C(=O)N[C@@H](Cc1ccc(O)cc1)C(N)=O)[C@@H](C)O)C(C)C)[C@@H](C)O [Example 47] ({C20 diacid-γGlu}-GRCNTATCATQRLANFLRHSSPNFGAIPSSTNVGSHTY-NH2; disulfide 3-8) | ≥ 200 | 50 (≈ 224 µg/mL) | ≥ 200 | ≥ 200 | 68 (≈ 305 µg/mL) | ≥ 200 | ≥ 200 | ≥ 200 | 17.1 | 51 | 0 |
| CC[C@H](C)[C@H](NC(=O)[C@H](C)NC(=O)CNC(=O)[C@H](Cc1ccccc1)NC(=O)[C@H](CC(N)=O)NC(=O)[C@@H]1CCCN1C(=O)[C@H](CO)NC(=O)[C@H](CO)NC(=O)[C@H](Cc1c[nH]cn1)NC(=O)[C@H](CCCNC(=N)N)NC(=O)[C@H](CC(C)C)NC(=O)[C@H](Cc1ccccc1)NC(=O)[C@H](CCC(=O)O)NC(=O)[C@H](C)NC(=O)[C@H](CC(C)C)NC(=O)[C@H](CCCNC(=N)N)NC(=O)[C@H](CCC(N)=O)NC(=O)[C@@H](NC(=O)[C@H](C)NC(=O)[C@@H]1CSSC[C@H](NC(=O)[C@@H](N)CCCCNC(=O)CC[C@H](NC(=O)CCCCCCCCCCCCCCCCCCC(=O)O)C(=O)O)C(=O)N[C@@H](CC(N)=O)C(=O)N[C@@H]([C@@H](C)O)C(=O)N[C@@H](C)C(=O)N[C@@H]([C@@H](C)O)C(=O)N1)[C@@H](C)O)C(=O)N1CCC[C@H]1C(=O)N[C@@H](CO)C(=O)N[C@@H](CO)C(=O)N[C@H](C(=O)N[C@@H](CC(N)=O)C(=O)N[C@H](C(=O)NCC(=O)N[C@@H](CO)C(=O)N[C@@H](CCCNC(=N)N)C(=O)N[C@H](C(=O)N[C@@H](Cc1ccc(O)cc1)C(N)=O)[C@@H](C)O)C(C)C)[C@@H](C)O [Example 51] (H-K([γGlu-C20 diacid])CNTATCATQRLAEFLRHSSPNFGAIPSSTNVGSRTY-NH2; disulfide 2-7 (inferred); N-terminus assumed) | ≥ 200 | 183 (≈ 812 µg/mL) | ≥ 200 | ≥ 200 | 109 (≈ 484 µg/mL) | ≥ 200 | ≥ 200 | ≥ 200 | 62 | 52 | 30 |
